Test results published in US10829495B2, “Thieno-pyrimidine derivatives and uses thereof” (ZHEJIANG JIANFENG-YIEN BIOTECHNOLOGY CO., LTD., priority 2015, dated 2020).

Tests used:
[1] = biological target: EGFR T790M (Homo sapiens, UniProt P00533, T790M); test: EGFR enzyme assay; type: biochemical; conditions: T790M mutant
Description: The following TABLE II lists compounds representative of the invention and their activity in EGFR assays. In these assays, the following grading was used: A: <0.1 μM; B: 0.1-10 μM.

[2] = tested on: NCI-H1975 cells; test: Efficacy studies in tumor bearing mice (NCI-H1975 xenograft); type: in vivo; conditions: female nu/nu mice, subcutaneous NCI-H1975 tumors, orally at 40 mg/kg daily
Description: 2. Efficacy Studies in Tumor Bearing Mice:
Female nu/nu mice were implanted with 1×10^7 NCI-H1975 cells in 50% Matrigel subcutaneously in the flank. Tumors were pair matched with a group size of 10 mice. Test compound was administrated orally at 40 mg/kg daily.

Sequence of EGFR T790M (P00533 25-1210 T790M): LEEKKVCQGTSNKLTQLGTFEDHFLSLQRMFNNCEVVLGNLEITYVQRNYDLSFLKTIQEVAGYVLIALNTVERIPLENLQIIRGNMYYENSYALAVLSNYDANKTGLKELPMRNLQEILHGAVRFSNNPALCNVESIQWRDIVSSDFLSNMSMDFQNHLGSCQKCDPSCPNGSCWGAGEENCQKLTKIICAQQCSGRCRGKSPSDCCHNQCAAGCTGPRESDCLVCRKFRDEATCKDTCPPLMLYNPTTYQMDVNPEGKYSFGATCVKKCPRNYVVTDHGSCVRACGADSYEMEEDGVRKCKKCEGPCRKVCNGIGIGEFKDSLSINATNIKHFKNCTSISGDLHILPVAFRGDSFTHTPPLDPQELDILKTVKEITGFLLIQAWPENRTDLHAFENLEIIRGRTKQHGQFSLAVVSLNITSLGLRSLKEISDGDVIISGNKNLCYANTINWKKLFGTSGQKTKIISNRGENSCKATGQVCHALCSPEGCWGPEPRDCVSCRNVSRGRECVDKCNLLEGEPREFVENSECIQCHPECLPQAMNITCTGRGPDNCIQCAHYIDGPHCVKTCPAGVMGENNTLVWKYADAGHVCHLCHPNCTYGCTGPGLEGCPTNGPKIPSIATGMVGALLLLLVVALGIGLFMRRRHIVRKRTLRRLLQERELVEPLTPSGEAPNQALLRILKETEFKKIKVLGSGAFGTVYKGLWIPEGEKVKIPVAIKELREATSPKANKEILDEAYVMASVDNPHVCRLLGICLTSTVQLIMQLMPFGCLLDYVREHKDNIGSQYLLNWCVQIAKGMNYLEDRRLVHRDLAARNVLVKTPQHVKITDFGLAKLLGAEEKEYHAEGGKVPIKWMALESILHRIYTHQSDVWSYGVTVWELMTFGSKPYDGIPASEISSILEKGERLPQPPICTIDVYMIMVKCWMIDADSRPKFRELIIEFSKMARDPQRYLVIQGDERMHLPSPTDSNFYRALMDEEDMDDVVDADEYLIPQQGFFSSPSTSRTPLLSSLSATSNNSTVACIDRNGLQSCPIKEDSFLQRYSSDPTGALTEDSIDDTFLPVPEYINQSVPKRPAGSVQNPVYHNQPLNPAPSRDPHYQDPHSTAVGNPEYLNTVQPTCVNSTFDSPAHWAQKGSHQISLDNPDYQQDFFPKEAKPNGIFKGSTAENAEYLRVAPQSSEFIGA

| IC50 [1] | Structure (SMILES) | Tumor growth inhibition (%) [2] |
| --- | --- | --- |
| < 100 nM | C=CC(=O)Nc1cc(Nc2nc(-c3cn(C)c4cc(C)ccc34)c3sccc3n2)c(OC)cc1N(C)CCN(C)C [Compound 8, N-[2-[2-(dimethylamino)ethyl-methyl-amino]-5-[[4-(1,6-dimethylindol-3-yl)thieno[3,2-d]pyrimidin-2-yl]amino]-4-methoxy-phenyl]prop-2-enamide] | – |
| < 100 nM | C=CC(=O)Nc1cc(Nc2nc(-c3cn(CC)c4ccccc34)c3sccc3n2)c(OC)cc1N(C)CCN(C)C [Compound 2, N-[2-[2-(dimethylamino)ethyl-methyl-amino]-5-[[4-(1-ethylindol-3-yl)thieno[3,2-d]pyrimidin-2-yl]amino]-4-methoxy-phenyl]prop-2-enamide] | >75% |
| < 100 nM | C=CC(=O)Nc1cc(Nc2nc(-c3cn(C)c4ccccc34)c3sccc3n2)c(OC)cc1N(C)CCN(C)C [Compound 1, N-[2-[2-(dimethylamino)ethyl-methyl-amino]-4-methoxy-5-[[4-(1-methylindol-3-yl)thieno[3,2-d]pyrimidin-2-yl]amino]phenyl]prop-2-enamide] | >75% |
| 100 to 10000 nM | C=CC(=O)Nc1cc(Nc2nc(-c3cn(C)c4cc(OC)ccc34)c3sccc3n2)c(OC)cc1N(C)CCN(C)C [Compound 7, N-[2-[2-(dimethylamino)ethyl-methyl-amino]-4-methoxy-5-[[4-(6-methoxy-1-methyl-indol-3-yl)thieno[3,2-d]pyrimidin-2-yl]amino]phenyl]prop-2-enamide] | – |
| 100 to 10000 nM | C=CC(=O)Nc1cc(Nc2nc(-c3cn(C(C)(C)C)c4ccccc34)c3sccc3n2)c(OC)cc1N(C)CCN(C)C [Compound 4, N-[5-[[4-(1-tert-butylindol-3-yl)thieno[3,2-d]pyrimidin-2-yl]amino]-2-[2-(dimethylamino)ethyl-methyl-amino]-4-methoxy-phenyl]prop-2-enamide] | – |
| < 100 nM | C=CC(=O)Nc1cc(Nc2nc(-c3cn(C)c4ccc(OC)cc34)c3sccc3n2)c(OC)cc1N(C)CCN(C)C [Compound 6, N-[2-[2-(dimethylamino)ethyl-methyl-amino]-4-methoxy-5-[[4-(5-methoxy-1-methyl-indol-3-yl)thieno[3,2-d]pyrimidin-2-yl]amino]phenyl]prop-2-enamide] | – |
| < 100 nM | C=CC(=O)Nc1cc(Nc2nc(-c3cn(C(C)C)c4ccccc34)c3sccc3n2)c(OC)cc1N(C)CCN(C)C [Compound 3, N-[2-[2-(dimethylamino)ethyl-methyl-amino]-5-[[4-(1-isopropylindol-3-yl)thieno[3,3-d]pyrimidin-2-yl]amino]-4-methoxy-phenyl]prop-2-enamide] | – |
| < 100 nM | C=CC(=O)Nc1cc(Nc2nc(-c3cn(C)c4ccc(C)cc34)c3sccc3n2)c(OC)cc1N(C)CCN(C)C [Compound 5, N-[2-[2-(dimethylamino)ethyl-methyl-amino]-5-[[4-(1,5-dimethylindol-3-yl)thienol[3,2-d]pyrimidin-2-yl]amino]-4-methoxy-phenyl]prop-2-enamide] | – |
